Results as given in patent publication US8993622B2, “Antiviral compounds” (Eirium AB, priority 2010, dated 2015).

Tests used:
Ad11p = experiment: Quantitative real-time PCR of adenovirus DNA replication in A549 cells (Ad11p); type: cell-based, human adenovirus
Experimental: Approximately 1×10^5 A549 cells were seeded in 24-well plates (Nunc) on the day before infection. On the day of infection, the cells in one well were counted to establish the amount of virions to be added. The growth medium was removed and compound and virus were added simultaneously to the cells in 700 μl DMEM with 0.75 g/l NaHCO3, 20 mM HEPES, 1×PEST, and 1% FBS. Compounds were added in concentrations ranging from 0.5 μM to 15 μM. The final concentration of DMSO was less than 1% in all samples. One pg of Ad virions was added per cell. The plate was incubated at 37° C. in 5% CO2 and 24 h after infection the cells were harvested, washed once, and resuspended in PBS. DNA was prepared from the samples using the QIAamp DNA Blood Mini Kit (QIAGEN, Solna, Sweden) according to the manufacturer's instructions. The design of primers and probes for analysis of various Ad types representing different adenovirus species with quantitative PCR has been described previously (Allard et al. 2001. Rapid typing of human adenoviruses by a general PCR combined with restriction endonuclease analysis. Journal Clinical Microbiology 39:498-505). Briefly, quantitative real-time PCR was carried out using a degenerate primer pair, Kadgen1 (forward)—Kadgen 2 (reverse) (5′-CWT ACA TGC ACA TCK CSG G-3′—SEQ ID NO:1, and 5′-CRC GGG CRA AYT GCA CCA G-3′—SEQ ID NO:2, respectively); DNA technology A/S, Aarhus, Denmark). This primer pair is specific for the conserved region of the Ad hexon gene and can detect all human Ads. Different FAM-TAMRA probes were used to quantitate Ads from different species: AdB1B2 (5′-6-FAM-AGGATGCTTCGGAGTACCTGAGTCCGG-TAMRA-3′—SEQ ID NO:3) for Ad11p (11) and AdC (5′-6-FAM-AGGACGCCTCGGAGTACCTGAGCCCCG-TAMRA-3′—SEQ ID NO:4) for Ad 5 (all from Applied Biosystems, Cheshire, UK). For Ads from species A, D, E and F the probe AdDF (5′-6-FAM-CCGGGCTCAGGTACTCCGAGGCGTCCT-3′—SEQ ID NO:5) was used (Applied Biosystems). Standard curves ranging from 5 to 5×10^5 genome copies were generated by serial dilution of known amounts of full-length Ad5 or Ad11 DNA. The Ad5 DNA standard was used for the AdDF probe system. […] The program for the real-time PCR was: 2 min at 50° C. to activate UNG, followed by amplification and quantitation (10 min at 95° C. and 40 cycles of 15 sec at 95° C., 1 min at 60° C.). […] Real-time PCR was performed in an ABI PRISM 7700 Sequence Detector (Applied Biosystems) and analyzed with Sequence Detector v1.7a software.

Ad31 (A) = experiment: Quantitative real-time PCR of adenovirus DNA replication in A549 cells (Ad31); type: cell-based; conditions: Human adenovirus sp., read-out: % inhibition of DNA replication (SD)
Experimental: (§1) Approximately 1×10^5 A549 cells were seeded in 24-well plates (Nunc) on the day before infection. On the day of infection, the cells in one well were counted to establish the amount of virions to be added. The growth medium was removed and compound and virus were added simultaneously to the cells in 700 μl DMEM with 0.75 g/l NaHCO3, 20 mM HEPES, 1×PEST, and 1% FBS. Compounds were added in concentrations ranging from 0.5 μM to 15 μM. The final concentration of DMSO was less than 1% in all samples. One pg of Ad virions was added per cell. The plate was incubated at 37° C. in 5% CO2 and 24 h after infection the cells were harvested, washed once, and resuspended in PBS. […] The design of primers and probes for analysis of various Ad types representing different adenovirus species with quantitative PCR has been described previously (Allard et al. 2001. Rapid typing of human adenoviruses by a general PCR combined with restriction endonuclease analysis. Journal Clinical Microbiology 39:498-505). Briefly, quantitative real-time PCR was carried out using a degenerate primer pair, Kadgen1 (forward)—Kadgen 2 (reverse) (5′-CWT ACA TGC ACA TCK CSG G-3′—SEQ ID NO:1, and 5′-CRC GGG CRA AYT GCA CCA G-3′—SEQ ID NO:2, respectively); DNA technology A/S, Aarhus, Denmark). […] Real-time PCR was performed in an ABI PRISM 7700 Sequence Detector (Applied Biosystems) and analyzed with Sequence Detector v1.7a software.

Ad37 (D) = experiment: Quantitative real-time PCR of adenovirus DNA replication in A549 cells (Ad37); type: cell-based; conditions: Human adenovirus sp., read-out: % inhibition of DNA replication (SD)
Experimental: as §1

Ad41 (F) = experiment: Quantitative real-time PCR of adenovirus DNA replication in A549 cells (Ad41); type: cell-based; conditions: Human adenovirus sp., read-out: % inhibition of DNA replication (SD)
Experimental: as §1

Ad5 hexon protein = experiment: FACS analysis of Ad5 hexon protein expression in A549 cells; type: cell-based, human adenovirus; conditions: 24 h
Experimental: (§2) FIG. 4. A. Binding of ^35S-labelled Ad5 to A549 cells in the presence of A02. Error bars represent the standard deviation of the means from three independent duplicate experiments. B. Flowcytometry assay detecting Ad5 (grey bars) and Ad11 (checkered bars) hexon protein following 24 h incubation with virus and compound A02. Error bars represent the standard deviation of the means from two independent duplicate experiments.
(§3) A binding assay using isotope-labeled virions was used to address whether the compound would prevent viral adhesion to host cells. At 15 μM, compound A02 has no effect on Ad5 binding to the surface of A549 cells (FIG. 4A). To further verify inhibition of viral replication, the effect on the expression of the most abundant viral structural protein (hexon) in A549 cells was studied by FACS analysis.

Ad11p hexon protein = experiment: FACS analysis of Ad11p hexon protein expression in A549 cells; type: cell-based, human adenovirus; conditions: 24 h
Experimental: as §2, §3

HIV integrase = HIV integrase (Human immunodeficiency virus type 1 group M subtype B, UniProt P04585); conditions: US 2006/0035245; cited from earlier work

Structure (SMILES): O=C(Nc1ccccc1C(=O)Nc1ccccc1C(=O)O)c1ccccc1 [Compound A02, 2-[[2-(Benzoylamino)benzoyl]amino]-benzoic acid]
- selectivity index (SI=CC50/IC50) for Ad11p (Ad11p): 68
- IC50 (Ad11p; Human adenovirus sp., 24 h, read-out: IC50 for Ad11p replication (QPCR)): 2.9 µM
- inhibition at 5 µM (Ad11p; Human adenovirus sp., Ad11p (B2), 5 μM, read-out: % inhibition of DNA replication (SD)): 79%
- inhibition at 15 µM (Ad11p; Human adenovirus sp., Ad11p (B2), 15 μM, read-out: % inhibition of DNA replication (SD)): 79%
- inhibition at 5 µM (Ad31 (A); 5 μM): 86%
- inhibition at 15 µM (Ad31 (A); 15 μM): 98%
- inhibition at 5 µM (Ad37 (D); 5 μM): 86%
- inhibition at 15 µM (Ad37 (D); 15 μM): 94%
- inhibition at 5 µM (Ad41 (F); 5 μM): 80%
- inhibition at 15 µM (Ad41 (F); 15 μM): 88%
- expression of Ad5 hexon protein (Ad5 hexon protein): inhibited by compound A02 in a dose-dependent manner
- expression of Ad11p hexon protein (Ad11p hexon protein): inhibited by compound A02 in a dose-dependent manner
- inhibition of HIV integrase (HIV integrase): failed to inhibit
